Experiment: tryptophan release / dissolution in fasted-state simulated gastric fluid (FaSSGF)
Format: physicochemical
Conditions: 30 mg powder in 22 mL FaSSGF, 37° C., agitated
Procedure: 30 mg of tryptophan powder were suspended in 22 mL FaSSGF at 37° C. and agitated (shaker ST5 from CAT, Germany). Aliquots were removed at time intervals of 5 min, and tryptophan concentration was quantified using absorption measurement at a wavelength of 280 nm in a NanoDrop® 2000 device (Thermo Scientific, USA).

N[C@@H](Cc1c[nH]c2ccccc12)C(=O)O [tryptophan powder, L-Tryptophan]
time after which tryptophan was quantitatively dissolved: 10 min
